Results from US20140221424A1, “PHARMACEUTICAL COMPOSITIONS FOR USE IN THE TREATMENT OF CYSTIC FIBROSIS” (Vertex Pharmaceuticals Incorporated, priority 2013, published 2014).
In brackets after ≈: the same amount, converted by molar mass. Like-named read-outs stand apart in the source and are kept apart here.

Tests used:
pregnant rats = assay: Placental transfer in pregnant rats; format: in vivo, rat
Excerpt: (§1) There are no adequate and well-controlled studies of KALYDECO™ in pregnant women. […] Because animal reproduction studies are not always predictive of human response, KALYDECO™ should be used during pregnancy only if clearly needed.

[1] = Pharmacokinetics in moderate hepatic impairment; format: in vivo, human
Experimental: Therefore, a reduced KALYDECO™ dose of 150 mg once daily is recommended for patients with moderate hepatic impairment. The impact of mild hepatic impairment (Child-Pugh Class A) on pharmacokinetics of ivacaftor has not been studied, but the increase in ivacaftor AUC0-∞ is expected to be less than two-fold. Therefore, no dose adjustment is necessary for patients with mild hepatic impairment. The impact of severe hepatic impairment (Child-Pugh Class C, score 10-15) on pharmacokinetics of ivacaftor has not been studied. […] When benefits are expected to outweigh the risks, KALYDECO™ should be used with caution in patients with severe hepatic impairment at a dose of 150 mg given once daily or less frequently.
Therefore, a reduced dose of 150 mg once daily is recommended in patients with moderate hepatic impairment.

juvenile rats = assay: Juvenile rat toxicology; format: in vivo; details: juvenile rats dosed postnatal day 7-35, 10 mg/kg/day and higher
Excerpt: This finding has not been observed in older animals.

[2] = system: CYP3A enzymes (i.e., CYP3A4 and CYP3A5); assay: Metabolism by CYP3A (in vitro and clinical studies); format: in vitro ADME, human; details: for substrate of CYP3A enzymes (CYP3A4 and CYP3A5): in vitro studies
Excerpt: (§2) Ivacaftor is extensively metabolized in humans. […] M1 and M6 are the two major metabolites of ivacaftor in humans. M1 has approximately one-sixth the potency of ivacaftor and is considered pharmacologically active. M6 has less than one-fiftieth the potency of ivacaftor and is not considered pharmacologically active.
(§3) The data obtained for KALYDECO™ without co-administration of inducers or inhibitors are used as reference.

mice = assay: Two-year carcinogenicity study in mice; format: in vivo, mouse; details: oral doses up to 200 mg/kg/day
Experimental: (§4) Two-year studies were conducted in mice and rats to assess carcinogenic potential of KALYDECO™.

male and female rats = assay: Fertility and reproductive performance in rats; format: in vivo, rat
Experimental: Ivacaftor impaired fertility and reproductive performance indices in male and female rats at 200 mg/kg/day (approximately 5 and 6 times, respectively, the MRHD based on summed AUCs of ivacaftor and its metabolites). […] These impairments of fertility and reproductive performance in male and female rats at 200 mg/kg/day were attributed to severe toxicity.

healthy subjects = assay: Thorough QT study (ECG evaluation); format: in vivo, human; details: 150 mg and 450 mg twice daily, 72 healthy subjects
Experimental: The highest repeated dose was 450 mg (in a tablet formulation) every 12 hours for 4.5 days (9 doses) in a trial evaluating the effect of KALYDECO™ on ECGs in healthy subjects.
The effect of multiple doses of ivacaftor 150 mg and 450 mg twice daily on QTc interval was evaluated in a randomized, placebo- and active-controlled (moxifloxacin 400 mg) four-period crossover thorough QT study in 72 healthy subjects.

pregnant rabbits = assay: Placental transfer in pregnant rabbits; format: in vivo, rabbit
Excerpt: as §1

G551D-CFTR protein [3] = biological target: T1, G551D-CFTR protein (Homo sapiens, UniProt P13569, G551D); assay: Transepithelial current (IT) in human bronchial epithelial cells expressing G551D-CFTR; format: cell-based; set-up: endogenous in cells; host or cells: human bronchial epithelial cells
rats [4] = assay: Teratogenicity in rats; format: in vivo, rat; details: maternal dose 200 mg/kg/day, approximately 6 times the MRHD
Excerpt: as §1

rats [5] = assay: Two-year carcinogenicity study in rats; format: in vivo, rat; details: oral doses up to 50 mg/kg/day
Experimental: as §4

rabbits = assay: Teratogenicity in rabbits; format: in vivo, rabbit; details: maternal dose 100 mg/kg/day, approximately 12 times the MRHD
Excerpt: as §1

[6] = Clinical pharmacokinetics after oral administration; format: in vivo, human
Experimental: After every 12 hour dosing, steady-state plasma concentrations of ivacaftor were reached by days 3 to 5, with an accumulation ratio ranging from 2.2 to 2.9.
The exposure of ivacaftor increased approximately 2- to 4-fold when given with food containing fat. Therefore, KALYDECO™ should be administered with fat-containing food. Examples of fat-containing foods include eggs, butter, peanut butter, and cheese pizza. The median (range) tmax is approximately 4.0 (3.0; 6.0) hours in the fed state.
The mean apparent volume of distribution (Vz/F) of ivacaftor after a single dose of 275 mg of KALYDECO™ in the fed state was similar for healthy subjects and patients with CF. After oral administration of 150 mg every 12 hours for 7 days to healthy volunteers in a fed state, the mean (±SD) for apparent volume of distribution was 353 (122) L.
(§5) Following oral administration, the majority of ivacaftor (87.8%) is eliminated in the feces after metabolic conversion. The major metabolites M1 and M6 accounted for approximately 65% of the total dose eliminated with 22% as M1 and 43% as M6. There was negligible urinary excretion of ivacaftor as unchanged parent. […] The mean apparent clearance (CL/F) of ivacaftor was similar for healthy subjects and patients with CF.

CYP3A = assay: Drug interaction studies: other drugs on ivacaftor exposure; format: in vivo, human
Experimental: Drug interaction studies were performed with KALYDECO™ and other drugs likely to be co-administered or drugs commonly used as probes for pharmacokinetic interaction studies [see Drug Interactions (subsection 7 of section V)].
as §3

mouse = assay: In vivo mouse micronucleus test
Excerpt: (§6) Ivacaftor was negative for genotoxicity in the following assays: Ames test for bacterial gene mutation, in vitro chromosomal aberration assay in Chinese hamster ovary cells, and in vivo mouse micronucleus test.

Solubility in water = format: physicochemical; details: practically insoluble
Excerpt: Ivacaftor is a white to off-white powder that is practically insoluble in water (<0.05 microgram/mL).

[7] = system: patients with a G551D mutation; assay: Population PK/PD analysis (Emax model) of FEV1 versus ivacaftor exposure; set-up: species or system human; details: pooled Phase 2a and Phase 3 data
Excerpt: Therefore, median Cmin at EC90 was chosen as the target PK parameter for efficacy.

bacterial gene mutation = assay: Ames test for bacterial gene mutation; format: cell-based
Excerpt: as §6

lactating female rats = assay: Excretion into milk of lactating rats; format: in vivo, rat
Experimental: Excretion of ivacaftor into human milk is probable. There are no human studies that have investigated the effects of ivacaftor on breast-fed infants. Caution should be exercised when KALYDECO™ is administered to a nursing person.

G551D-CFTR protein [8] = biological target: T1, G551D-CFTR protein; assay: CFTR-mediated transepithelial current (IT) in rodent cells expressing G551D-CFTR; format: cell-based; set-up: expressed in transfected cells
[9] = Elimination / human PK study with radioactivity; format: in vivo; details: for share of the total dose eliminated as this metabolite: po
Excerpt: as §5
KALYDECO™ has not been studied in patients with mild, moderate or severe renal impairment (creatinine clearance less than or equal to 30 mL/min) or in patients with end stage renal disease. No dose adjustments are recommended for mild and moderate renal impairment patients because of minimal elimination of ivacaftor and its metabolites in urine (only 6.6% of total radioactivity was recovered in the urine in a human PK study); however, caution is recommended when administering KALYDECO™ to patients with severe renal impairment or end stage renal disease.

[10] = system: Chinese hamster ovary cells; assay: In vitro chromosomal aberration assay; format: cell-based; details: CHO cells
Excerpt: as §6

Plasma protein binding = format: in vitro ADME; details: human
Excerpt: Ivacaftor is approximately 99% bound to plasma proteins, primarily to alpha 1-acid glycoprotein and albumin.

G551D-CFTR protein [11] = biological target: T1, G551D-CFTR protein; assay: Single channel patch clamp, membrane patches from rodent cells expressing G551D-CFTR; format: biochemical; set-up: expressed in transfected cells; details: versus untreated cells, after addition of PICA and ATP
human red blood cells = assay: Binding to red blood cells; format: in vitro ADME
[12] = Potency of metabolites relative to ivacaftor
Excerpt: as §2

[13] = moderately impaired hepatic function (Child-Pugh Class B, score 7 to 9)
[14] = rats, 200 mg/kg/day, dams dosed prior to and during early pregnancy

T1 sequence (P13569 whole entry G551D): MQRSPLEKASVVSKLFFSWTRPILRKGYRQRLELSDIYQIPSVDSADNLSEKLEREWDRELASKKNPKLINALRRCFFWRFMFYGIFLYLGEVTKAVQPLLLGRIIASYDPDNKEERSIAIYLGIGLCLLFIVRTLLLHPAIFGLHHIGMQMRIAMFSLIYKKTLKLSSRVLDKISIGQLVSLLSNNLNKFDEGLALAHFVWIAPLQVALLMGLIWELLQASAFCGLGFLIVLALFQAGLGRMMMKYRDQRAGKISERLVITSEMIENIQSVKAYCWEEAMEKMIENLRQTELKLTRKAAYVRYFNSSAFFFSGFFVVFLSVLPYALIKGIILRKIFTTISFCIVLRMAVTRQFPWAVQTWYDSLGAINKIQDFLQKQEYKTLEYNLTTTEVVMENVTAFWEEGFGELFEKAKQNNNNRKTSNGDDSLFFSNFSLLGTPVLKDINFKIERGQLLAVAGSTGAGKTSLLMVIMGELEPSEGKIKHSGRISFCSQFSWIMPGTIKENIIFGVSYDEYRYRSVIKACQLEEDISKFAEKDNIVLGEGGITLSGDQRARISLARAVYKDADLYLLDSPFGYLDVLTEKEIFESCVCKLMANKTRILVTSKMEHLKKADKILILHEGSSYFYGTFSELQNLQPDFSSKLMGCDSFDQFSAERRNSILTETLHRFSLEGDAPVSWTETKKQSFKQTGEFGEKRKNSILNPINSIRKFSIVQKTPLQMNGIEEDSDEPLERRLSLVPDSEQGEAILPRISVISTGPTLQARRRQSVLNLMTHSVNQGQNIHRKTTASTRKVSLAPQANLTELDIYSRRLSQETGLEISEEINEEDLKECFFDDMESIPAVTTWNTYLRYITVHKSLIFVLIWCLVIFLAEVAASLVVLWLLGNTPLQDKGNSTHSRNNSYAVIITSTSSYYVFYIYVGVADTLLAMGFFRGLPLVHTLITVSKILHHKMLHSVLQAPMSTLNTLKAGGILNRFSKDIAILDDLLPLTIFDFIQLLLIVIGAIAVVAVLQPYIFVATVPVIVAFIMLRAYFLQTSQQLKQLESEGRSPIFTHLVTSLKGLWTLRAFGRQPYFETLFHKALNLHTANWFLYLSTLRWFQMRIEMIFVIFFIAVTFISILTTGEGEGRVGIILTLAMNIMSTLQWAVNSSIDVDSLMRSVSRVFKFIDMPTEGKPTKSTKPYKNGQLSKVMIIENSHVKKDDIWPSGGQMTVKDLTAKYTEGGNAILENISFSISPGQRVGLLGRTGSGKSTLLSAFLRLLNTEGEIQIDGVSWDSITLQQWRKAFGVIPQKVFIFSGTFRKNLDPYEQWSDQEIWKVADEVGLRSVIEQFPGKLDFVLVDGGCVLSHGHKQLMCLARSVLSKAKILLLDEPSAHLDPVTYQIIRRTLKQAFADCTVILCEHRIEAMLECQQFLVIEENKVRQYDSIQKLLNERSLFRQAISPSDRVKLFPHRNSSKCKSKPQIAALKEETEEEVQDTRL

What does the source list for `CC(C)(C)c1cc(C(C)(C)C)c(NC(=O)c2c[nH]c3ccccc3c2=O)cc1O` [Ivacaftor, N-[2,4-bis(1,1-dimethylethyl)-5-hydroxyphenyl]-1,4-dihydro-4-oxoquinoline-3-carboxamide]?
placental transfer (pregnant rats): observed; AUC(0-inf) ([1]; human, in vivo, oral, single dose of 150 mg, moderately impaired hepatic function, read-out: AUC0-∞, mean (±SD)): 16800 ng·h/mL; Cmax ([1]; human, in vivo, oral, single dose of 150 mg, moderately impaired hepatic function, read-out: Cmax, mean (±SD)): 735 ng/mL; Cmax compared with healthy subjects matched for demographics [1, 13]: similar; increase in AUC0-∞ compared with healthy subjects matched for demographics [1, 13]: approximately two-fold; cataracts (juvenile rats): Cataracts were seen; primary route of metabolism ([2]; in vitro and clinical studies): primarily metabolized by CYP3A; substrate of CYP3A enzymes (CYP3A4 and CYP3A5) [2]: substrates; tumorigenicity (mice): No evidence of tumorigenicity; prolonged diestrus (male and female rats; female rats, 200 mg/kg/day): Increases; fertility and reproductive performance indices (male and female rats; male and female rats, 200 mg/kg/day, attributed to severe toxicity): impaired; fertility and reproductive performance indices (male and female rats; male or female rats, ≦100 mg/kg/day (approximately 3 times the MRHD)): No effects; corpora lutea, implantations, and viable embryos (male and female rats; [14]): decreased; number of females with all nonviable embryos (male and female rats; [14]): increased; upper bound of the one-sided 95% confidence interval for the largest placebo adjusted, baseline-corrected QTcF (healthy subjects): below 10 ms; placental transfer (pregnant rabbits): observed; EC50 (G551D-CFTR protein [3]): 236 ± 200 nM; increase of IT (G551D-CFTR protein [3]; human bronchial epithelial cells expressing G551D-CFTR, following addition of a cAMP agonist): 10 fold; teratogenic effects (rats [4]): not teratogenic; tumorigenicity (rats [5]): No evidence of tumorigenicity; teratogenic effects (rabbits): not teratogenic; apparent volume of distribution, mean (±SD) ([6]; 150 mg orally every 12 hours for 7 days, healthy volunteers, fed state): 353 (122) L; increase of exposure when given with food containing fat ([6]; human, in vivo): 2-4 fold; mean apparent clearance (CL/F), healthy subjects versus patients with CF ([6]; human, in vivo): similar; pharmacokinetics, healthy adult volunteers versus patients with CF ([6]; human, in vivo): similar; Tmax ([6]; human, in vivo, fed state, read-out: median (range) tmax): ~4 h; half-life ([6]; human, in vivo, following a single dose, read-out: apparent terminal half-life (converted)): ~12 h; AUC ([6]; human, in vivo, single 150 mg oral dose, healthy volunteers, fed state, read-out: AUC, mean (±SD)): 10600 ng·h/mL; Cmax ([6]; human, in vivo, single 150 mg oral dose, healthy volunteers, fed state, read-out: Cmax, mean (±SD)): 768 ng/mL; Tmax ([6]; human, in vivo, single 150 mg oral dose, healthy volunteers, fed state, read-out: time of peak plasma concentrations (Tmax)): ~4 h; mean apparent volume of distribution (Vz/F), healthy subjects versus patients with CF ([6]; single dose of 275 mg, fed state): similar; increase of ivacaftor exposure (CYP3A; co-administration with fluconazole, a moderate inhibitor of CYP3A): 3 fold; increase of ivacaftor exposure (AUC) (CYP3A; co-administration with ketoconazole, a strong CYP3A inhibitor): 8.5 fold; decrease of ivacaftor exposure (AUC) (CYP3A; co-administration with rifampin, a strong CYP3A inducer): approximately 9 fold; genotoxicity (mouse): negative; solubility (Solubility in water): < 0.05 µg/mL; EC50, FEV1 versus ivacaftor exposure, Emax model [7]: 0.045 µg/mL (≈ 0.115 µM); EC90, FEV1 versus ivacaftor exposure, Emax model [7]: 0.405 µg/mL (≈ 1.03 µM); genotoxicity (bacterial gene mutation): negative; excretion into milk (lactating female rats): excreted into the milk; increase of IT in the absence of cAMP agonist (G551D-CFTR protein [8]): did not increase; EC50 (G551D-CFTR protein [8]; following addition of a cAMP agonist, read-out: EC50, increase of CFTR-mediated transepithelial current (IT)): 100 ± 47 nM; urinary excretion as unchanged parent ([9]; in vivo): negligible; total radioactivity recovered in the urine ([9]; ivacaftor and its metabolites, human PK study): 6.6%; genotoxicity [10]: negative; fraction unbound (Plasma protein binding): ~0.01; increase of open probability of G551D-CFTR protein (G551D-CFTR protein [11]): 6 fold; binding to human red blood cells (human red blood cells): does not bind

Which “potency relative to ivacaftor” value [12] does the source give for `CC(C)(C)c1cc(C(C)(C)C(=O)O)c(O)cc1NC(=O)c1c[nH]c2ccccc2c1=O` [M6] here?
The value was “less than one-fiftieth”.

What about the “share of the total dose eliminated as this metabolite” value ([9]; in vivo) of the same molecule?
Its value is 43%.

Which “substrate of CYP3A enzymes (CYP3A4 and CYP3A5)” value [2] does the source give for `CC(C)(C)c1cc(C(C)(C)CO)c(O)cc1NC(=O)c1c[nH]c2ccccc2c1=O` [M1, hydroxymethyl-ivacaftor] here?
Its value is “substrates”.

And the “potency relative to ivacaftor” value [12]?
The value was “approximately one-sixth”.

And the “increase of M1 exposure” value (CYP3A; ivacaftor co-administered with fluconazole)?
Its value is 1.9 fold.

What about the “increase of M1 exposure” value (CYP3A; ivacaftor co-administered with ketoconazole) of the same molecule?
Its value is 1.7 fold.

What about the “share of the total dose eliminated as this metabolite” value ([9]; in vivo) of the same molecule?
Its value is 22%.
